Measurements published in patent publication US6525094B1, “Method of treating hair loss using diphenylether derivatives” (The University of Texas Southwestern Medical Center, priority 1999, dated 2003).

System: male Sprague Dawley rats
Assay: Cardiotoxicity Assay (heart-to-body weight ratio)
Assay type: in vivo, rat
Details: 250 μg of test compound per kg subcutaneously once daily for 28 days, hearts weighed on day 30
Source text: The cardiotoxicity assay measures the potential of a test compound to adversely affect the cardiovascular system. As thyroid hormone (T3) damages the cardiovascular system, the heart enlarges. See, e.g., Gomberg-Maitland et al., “Thyroid hormone and Cardiovascular Disease”, American Heart Journal, Vol. 135(2), pp. 187-196 (1998); Klein and Ojamaa, “Thyroid Hormone and the Cardiovascular System”, Current Opinion in Endocrinology and Diabetes, Vol. 4, pp.341-346 (1997); and Klemperer et al., “Thyroid Hormone Therapy and Cardiovascular Disease”, Progress in Cardiovascular Diseases, Vol. 37 (4), pp. 329-336 (1996). This increases the weight of the heart relative to whole body weight. The cardiotoxicity assay herein below is used to test compounds for potentially adverse cardiac effects by measuring their effect on the heart-to-body weight ratio.
Two groups each of six male Sprague Dawley rats (Harlan Sprague Dawley, Inc., Indianapolis, Ind.) (each weighing from approximately 220 grams to 235 grams) are utilized. The first group is a vehicle control group and the second group is a test compound group. The length of the assay is 30 days, with treatment of vehicle or test compound in vehicle daily for 28 of those days as described below.
Prior to initiation of the assay, each rat is allowed to acclimate to standard environmental conditions for 5 days. […]

SMILES | cardiac-sparing (index C = RT/RV, heart/body weight ratio of test compound group divided by that of vehicle control group; C less than 1.3 = cardiac-sparing)
N[C@@H](Cc1cc(I)c(Oc2ccc(O)c(I)c2)c(I)c1)C(=O)O [Example T3, thyronine] | not cardiac-sparing
N[C@@H](Cc1cc(I)c(Oc2cc(I)c(O)c(I)c2)c(I)c1)C(=O)O [Example T4, thyroxine] | not cardiac-sparing
